Assay results reported in patent publication US12029800B2, “Composite particles including anionic polymer and cationic polymer or peptide, and method for producing composite particles” (POLA CHEMICAL INDUSTRIES, INC., priority 2016, dated 2024).

Experiment: Test Example 3: particle diameter of composite particles after adding PBS (imitating the inside of the living body)
Type: physicochemical
Settings: PBS 100% (the same environment as the inside of the skin), FIG. 1
Protocol: An aqueous solution including a composite particle of sodium hyaluronate and a cationic polymer that was each of a primary amine and a quaternary ammonium was prepared in a similar manner as in Test Example 1.
By adding a PBS buffer solution constituted of the ions that are universally found in the living body into an aqueous solution of the prepared composite particles, it was investigated how the composite particles under the environment imitating the inside environment of the living body behaved.
Specifically, PBS was added into an aqueous solution of the prepared composite particles, and the particle diameter of a composite particle in the aqueous solution was measured in a similar manner as in Test Example 2.

Row | Substance | Particle diameter of the composite particle with sodium hyaluronate at addition amount of PBS 100%
1 | Polylysine | particle diameter was not able to be almost measured
2 | Protamine | particle diameter was not able to be almost measured
